Data on one compound can be found in publication PMC10226046, “Prodrug Strategies for the Development of β-L-5-((E)-2-Bromovinyl)-1-((2S,4S)-2-(hydroxymethyl)-1,3-(dioxolane-4-yl))uracil (L-BHDU) against Varicella Zoster Virus (VZV)” (Journal of Medicinal Chemistry, 2023).

Molecules are shown by their SMILES. Like-named read-outs stand apart in the source and are kept apart here.

A short description of data set [1]: Neutral red dye uptake cytotoxicity assay in ARPE-19 cells. The following applies: human.
Data set [2] has as its system VZV-ORF57-ΔTK. Briefly: microbe, parasite or virus in culture. It is filed as cell-based, Varicella zoster virus. To be noted: Human alphaherpesvirus 3, ARPE-19.
Data set [3] concerns VZV-ORF57-Luc. To be noted: for EC50: cell-free VZV-ORF57-Luc, ARPE-19 cells, 72 hpi, bioluminescence imaging.
Data set [4] has as its system VZV-ORF57-Luc. Briefly: microbe, parasite or virus in culture. To be noted: Human alphaherpesvirus 3, ARPE-19, cell-free VZV-ORF57-Luc, ARPE-19 cells, 72 hpi, bioluminescence imaging.
In data set [5] the test system is VZV-ORF57-Luc. Briefly: microbe, parasite or virus in culture. It is filed as cell-based, Varicella zoster virus. To be noted: Human alphaherpesvirus 3, ARPE-19.
The test system of data set [6] is VZV-ORF57-ΔTS. Briefly: microbe, parasite or virus in culture. To be noted: Human alphaherpesvirus 3, ARPE-19. It is filed as cell-based, Varicella zoster virus.
Data set [7] can be described thus: Oral pharmacokinetic absorption study in BALB/c mice (plasma, LC-MS/MS). It is filed as in vivo. The following applies: after oral 22.5 mg/kg POM-L-BHDU-MP, LC/MS. As to the method:
A pharmacokinetic absorption study was performed in BALB/c mice (Charles River). A single equimolar dose of 22.5 mg/kg POM-L-BHDU-MP or 11.4 mg/kg L-BHDU was dissolved in Cremophor–dimethyl sulfoxide (DMSO)–saline (1:1:8) and administered by oral gavage to two groups of mice with equal numbers of male and female mice (N = 15 each male and female).
Plasma was separated from red blood cells and immediately frozen at −80 °C.
This animal protocol #282 was approved by the IACUC at SUNY Upstate Medical University, which has been fully accredited by AAALAC since 7/31/1999. This method was previously used to evaluate L-BHDU effects on 5-fluorouracil metabolism.[16] Briefly, a single equimolar dose of 22.5 mg/kg POM-L-BHDU-MP or 11.4 mg/kg L-BHDU was dissolved in Cremophor–DMSO–saline (1:1:8) and administered by oral gavage to two groups of BALB/c mice (Charles River) with equal numbers of male and female mice (N = 15 each male and female). Six untreated mice were used for blank controls and were labeled time 0. At 20, 40, 60, and 120 min, three mice from the POM-L-BHDU-MP group and three mice from the L-BHDU group were anesthetized with inhaled isoflurane and then exsanguinated by cardiac puncture. Blood samples were collected into a tube containing heparin. Plasma was separated from red blood cells by centrifugation at 10,000 rpm for 5 min. Plasma was transferred to a new tube and immediately frozen at −80 °C.
Plasma samples were thawed, and exactly 0.95 mL was removed for analysis. The internal standard azidothymidine was added to mouse plasma samples at a final concentration of 20 ng/mL. Proteins were precipitated from the plasma by adding 2× volumes of methanol, then the samples were clarified by centrifugation. The supernatants were dried using an N-EVAP 116 analytical nitrogen evaporator and then reconstituted with 50% methanol in water. LC-MS/MS was used to analyze the concentrations of POM-L-BHDU-MP, L-BHDU, and L-BHDU-MP. Calibration curves were made using BALB/c mouse plasma (Innovative Research, Inc. Novi MI) prior to analyzing the experimental samples.
The primary stock solutions for the calibration were prepared at 0.5 mg/mL for L-BHDU, 1 mg/mL for POM-L-BHDU-MP, and 1 mg/mL for L-BHDU-MP. The primary stock solutions were diluted to working solutions that were in turn used to spike the biological matrix of interest. L-BHDU calibration points were 100.0, 400.0, 800.0, 1000.0, 4000.0, 6000.0, 8000.0, 10,000.0, and 12,000.0 ng/mL. L-BHDU-MP calibration points were 100.0, 200.0, 400.0, 800.0, 1000.0, 2000.0, 4000.0, 6000.0, and 8000.0 ng/mL. The ISTD working solution of AZT was prepared at 20 ng/mL. The standard stock solutions were stored in −80 °C freezer until used. […] The samples were analyzed in a negative ESI mode. […]

As a reminder, the CC50 is the concentration that lowers cell viability or growth by half. In general, EC50 refers to the concentration giving half of the maximal effect. Lower therefore signals a more potent agent. In data set [1], `CC(C)(C)C(=O)OCOP(=O)(OCOC(=O)C(C)(C)C)OC[C@H]1OC[C@@H](n2cc(/C=C/Br)c(=O)[nH]c2=O)O1` [POM-L-BHDU-MP (41), Bis(POM) Prodrug of L-BHDU-MP] displayed a CC50 at 72 h greater than 100000 nM. The EC50 in data set [2] was greater than 2000 nM; in data set [3], 35.6 nM; in data set [3] (listed as POM-L-BHDU-MP), 36 nM; in data set [4], 35 nM; in data set [5], 51 nM; in data set [6], 1.2 nM. In addition, the “SI (CC50/EC50)” value is on record as greater than 2809 in data set [3]; greater than 2809 in data set [3] (selectivity index = CC50/EC50, ARPE-19 cells); greater than 2809 in data set [3] (selectivity index = CC50/EC50, ARPE-19 cells, listed as POM-L-BHDU-MP). For the same compound, in data set [7], the “L-BHDU-MP detected in plasma” value was “below the limit of quantitation”.
